Source: patent US10899738B2 (THE REGENTS OF THE UNIVERSITY OF MICHIGAN, priority 2016, dated 2021)
Read-outs that look alike come from different tables or passages of the source.

Columns and labels:
menin protein = menin protein (Homo sapiens (Human), UniProt O00255); experiment: biochemical; assay type: binding; conditions: FP competitive binding; menin protein 4 nM, FAM-MM2 probe 2 nM; read-out: Menin Binding Affinity IC50
Method in brief: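 Competitive fluorescence polarization assay using FAM-labelled MLL1 peptide probe FAM-MM2 (2 nM final) preincubated with menin (4 nM final) in PBS with 0.02% bovine γ-globulin, 4% DMSO and 0.01% Triton X-100. Compounds were added and incubated 30 min at room temperature. IC50 came from nonlinear regression of competition curves, with Ki also derived.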

[1] = Cell growth inhibition, CellTiter-Glo Luminescent Cell Viability Assay; assay type: cell-based
Method in brief: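 Cells seeded at 2,000/well with serially diluted compound and cultured 4 days at 37 °C, 5% CO2. Viability read by CellTiter-Glo luminescence; IC50 derived from dose-response.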

[2] = MOLM-13, 96 h, MOLM13 cells, 4 days, CellTiter-Glo, read-out: Cell Growth Inhibition IC50 (μM) MOLM13
[3] = MV4-11, 96 h, MV4, 11 cells, 4 days, CellTiter-Glo, read-out: Cell Growth Inhibition IC50 (μM) MV4, 11
[4] = MOLM-13, 96 h, read-out: Cell Growth Inhibition IC50 (μM) MOLM13, MOLM13 cells, 4 days, CellTiter-Glo
[5] = MV4-11, 96 h, read-out: Cell Growth Inhibition IC50 (μM) MV4, 11, MV4, 11 cells, 4 days, CellTiter-Glo

Sequence of menin protein (O00255 whole entry): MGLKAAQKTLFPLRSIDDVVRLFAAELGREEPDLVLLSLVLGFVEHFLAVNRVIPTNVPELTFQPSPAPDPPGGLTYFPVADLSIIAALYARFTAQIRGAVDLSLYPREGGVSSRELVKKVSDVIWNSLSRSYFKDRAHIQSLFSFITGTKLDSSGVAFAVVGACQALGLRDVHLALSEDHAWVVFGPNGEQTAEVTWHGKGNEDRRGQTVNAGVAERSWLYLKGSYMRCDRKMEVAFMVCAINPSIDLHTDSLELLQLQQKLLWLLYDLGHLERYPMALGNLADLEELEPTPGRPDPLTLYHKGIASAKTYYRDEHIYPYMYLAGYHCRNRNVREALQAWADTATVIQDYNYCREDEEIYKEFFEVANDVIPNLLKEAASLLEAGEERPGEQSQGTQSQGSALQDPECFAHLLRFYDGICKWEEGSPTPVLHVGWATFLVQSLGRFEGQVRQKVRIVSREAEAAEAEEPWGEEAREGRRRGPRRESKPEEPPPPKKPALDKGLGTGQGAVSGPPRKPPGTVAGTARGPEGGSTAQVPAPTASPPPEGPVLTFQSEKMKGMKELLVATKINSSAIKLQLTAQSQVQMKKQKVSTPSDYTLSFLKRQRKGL

SMILES	IC50 (menin protein)	IC50 [1, 2]	IC50 [1, 3]	IC50 [1, 4]	IC50 [1, 5]
O=S(=O)(c1ccncc1)c1ccc(N2CC(CN3CCC(C4(C5CCCC5)CN(C5CCC5)Cc5ccccc54)CC3)C2)cc1 (stereo not drawn) [compound 49, 2-cyclobutyl-4-cyclopentyl-4-(1-((1-(4-(pyridin-4-ylsulfonyl)phenyl)azetidin-3-yl)methyl)piperidin-4-yl)-1,2,3,4-tetrahydroisoquinoline]	9 nM	4 µM	0.898 µM		
COC(=O)N[C@H]1CCC[C@@H]1C(C#N)(c1ccccc1)C1CCN(CC2(F)CN(c3ccc(S(=O)(=O)c4cnn(C)c4)cc3)C2)CC1 (mixture of isomers) [compound 397, methyl rac-((1S,2R)-2-(cyano(1-((3-fluoro-1-(4-((1-methyl-1H-pyrazol-4-yl)sulfonyl)phenyl)azetidin-3-yl)methyl)piperidin-4-yl)(phenyl)methyl)cyclopentyl) carbamate]	186 nM			> 10 µM	4.54 µM
O=S(=O)(c1ccncc1)c1ccc(N2CC(CN3CCC(C4(C5CCCC5)NCCc5ccccc54)CC3)C2)cc1 (stereo not drawn) [compound 151, 1-cyclopentyl-1-(1-((1-(4-(pyridin-4-ylsulfonyl)phenyl)azetidin-3-yl)methyl)piperidin-4-yl)-1,2,3,4-tetrahydroisoquinoline]	15 nM	0.627 µM	1.3 µM		
CCN1Cc2ccccc2C(C2CCCC2)(C2CCN(CC3CN(c4ccc(S(=O)(=O)C5CC5)cc4)C3)CC2)C1 (stereo not drawn) [compound 137, 4-cyclopentyl-4-(1-((1-(4-(cyclopropylsulfonyl)phenyl)azetidin-3-yl)methyl)piperidin-4-yl)-2-ethyl-1,2,3,4-tetrahydroisoquinoline]	8 nM	1.9 ± 0.7 µM	1 ± 0.2 µM		
N#Cc1ccc(OCCCN2CCC(C3(C4CCCC4)CNCc4ccccc43)CC2)cc1 (stereo not drawn) [compound 19, 4-(3-(4-(4-cyclopentyl-1,2,3,4-tetrahydroisoquinolin-4-yl)piperidin-1-yl)propoxy)benzonitrile]	61 nM			7.3 µM	1.6 ± 0.1 µM
CCN1Cc2ccccc2C(C2CCCC2)(C2CCN(CC3CN(c4ccc(S(=O)(=O)CC)cc4)C3)CC2)C1 (stereo not drawn) [compound 136, 4-cyclopentyl-2-ethyl-4-(1-((1-(4-(ethylsulfonyl)phenyl)azetidin-3-yl)methyl)piperidin-4-yl)-1,2,3,4-tetrahydroisoquinoline]	9 nM	3.8 µM	1.2 µM		
CCN1Cc2ccccc2C(C2CCCC2)(C2CCN(CC3CN(c4ccc(S(=O)(=O)c5ccncc5)cc4)C3)CC2)C1 (stereo not drawn) [Cpd. No. 148, 4-cyclopentyl-2-ethyl-4-(1-((1-(4-(pyridin-4-ylsulfonyl)phenyl)azetidin-3-yl)methyl)piperidin-4-yl)-1,2,3,4-tetrahydroisoquinoline]	6 nM	1.5 ± 0.9 µM	0.81 ± 0.364 µM		
CCN1Cc2ccccc2C(C2CCCC2)(C2CCN(CC3CN(c4ccc(S(=O)(=O)C5CCCC5)cc4)C3)CC2)C1 (stereo not drawn) [compound 142, 4-cyclopentyl-4-(1-((1-(4-(cyclopentylsulfonyl)phenyl)azetidin-3-yl)methyl)piperidin-4-yl)-2-ethyl-1,2,3,4-tetrahydroisoquinoline]	8 nM	3.2 ± 0.3 µM	0.979 ± 0.335 µM		
CNC(=O)N[C@H]1CCC[C@@H]1C1(C2CCN(CC3CN(c4ccc(S(=O)(=O)C5CC5)cc4)C3)CC2)CN(C(C)C)Cc2ccccc21 (mixture of isomers) [compound 288, rac-1-((1S,2R)-2-(4-(1-((1-(4-(cyclopropylsulfonyl)phenyl)azetidin-3-yl)methyl)piperidin-4-yl)-2-isopropyl-1,2,3,4-tetrahydroisoquinolin-4-yl)cyclopentyl)-3-methylurea]	12 nM			48.8 µM	0.35 µM
CN(C)C(=O)N[C@H]1CCC[C@@H]1C(Cn1ccnc1)(c1ccccc1)C1CCN(CC2CN(c3ccc(S(=O)(=O)c4cnn(C)c4)cc3)C2)CC1 (mixture of isomers) [compound 376, rac-3-((1S,2R)-2-(2-(1H-imidazol-1-yl)-1-(1-((1-(4-((1-methyl-1H-pyrazol-4-yl)sulfonyl)phenyl)azetidin-3-yl)methyl)piperidin-4-yl)-1-phenylethyl)cyclopentyl)-1,1-dimethylurea]	6 nM			> 10 µM	10.5 ± 2.08 µM
O=S(=O)(c1ccc(N2CC(CN3CCC(C4(C5CCCC5)NCCc5ccccc54)CC3)C2)cc1)C1CCCCC1 (stereo not drawn) [compound 92, 1-(1-((1-(4-(cyclohexylsulfonyl)phenyl)azetidin-3-yl)methyl)piperidin-4-yl)-1-cyclopentyl-1,2,3,4-tetrahydroisoquinoline]	19 nM	1.6 ± 0.1 µM	0.961 ± 0.384 µM		
COC(=O)N[C@H]1CCC[C@@H]1C(C#N)(c1ccccc1)C1CCN(CCC#Cc2ccc(C#N)cc2)CC1 (mixture of isomers) [compound 404, methyl rac-((1S,2R)-2-(cyano(1-(4-(4-cyanophenyl)but-3-yn-1-yl)piperidin-4-yl)(phenyl)methyl)cyclopentyl) carbamate]	212 nM			> 10 µM	> 10 µM
CNC(=O)N[C@H]1CCC[C@@H]1C(CN)(c1ccccc1)C1CCN(CC2CN(c3ccc(S(=O)(=O)c4ccccc4)cc3)C2)CC1 (mixture of isomers) [compound 321, rac-1-((1S,2R)-2-(2-amino-1-phenyl-1-(1-((1-(4-(phenylsulfonyl)phenyl)azetidin-3-yl)methyl)piperidin-4-yl)ethyl)cyclopentyl)-3-methylurea]	4 nM			1.25 µM	0.73 µM
CNC(=O)N[C@H]1CCC[C@@H]1C1(C2CCN(CC3CN(c4ccc(S(=O)(=O)c5ccncc5)cc4)C3)CC2)CN(C)Cc2ccccc21 (mixture of isomers) [compound 277, rac-1-methyl-3-((1S,2R)-2-(2-methyl-4-(1-((1-(4-(pyridin-4-ylsulfonyl)phenyl)azetidin-3-yl)methyl)piperidin-4-yl)-1,2,3,4-tetrahydroisoquinolin-4-yl)cyclopentyl)urea]	8 nM			0.43 µM	0.12 µM
CNC(=O)O[C@H]1CCC[C@@H]1[C@](C#N)(c1ccccc1)C1CCN(CC2CN(c3ccc(S(=O)(=O)c4ccncc4)cc3)C2)CC1 (mixture of isomers) [compound 353, rac-(1S,2R)-2-((S)-cyano(phenyl)(1-((1-(4-(pyridin-4-ylsulfonyl)phenyl)azetidin-3-yl)methyl)piperidin-4-yl)methyl)cyclopentyl methylcarbamate]	6 nM			0.25 µM	0.075 µM
CNC(=O)N[C@H]1CCC[C@@H]1C(C#N)(c1ccccc1)C1CCN(CC2CN(c3ccc(S(=O)(=O)c4ccncc4)cc3)C2)CC1 (mixture of isomers) [compound 269, rac-1-((1S,2R)-2-(cyano(phenyl)(1-((1-(4-(pyridin-4-ylsulfonyl)phenyl)azetidin-3-yl)methyl)piperidin-4-yl)methyl)cyclopentyl)-3-methylurea]	9 nM			1.73 µM	0.273 µM
CC(=O)N[C@H]1CCC[C@@H]1C(C#N)(c1ccccc1)C1CCN(CC2CN(c3ccc(S(=O)(=O)C4CC4)cc3)C2)CC1 (mixture of isomers) [compound 281, rac-N-((1S,2R)-2-(cyano(1-((1-(4-(cyclopropylsulfonyl)phenyl)azetidin-3-yl)methyl)piperidin-4-yl)(phenyl)methyl)cyclopentyl) acetamide]	29 nM			2.35 µM	0.55 µM
CC(C)S(=O)(=O)c1ccc(N2CC(CN3CCC(C4(C5CCCC5)NCCc5ccccc54)CC3)C2)cc1 (stereo not drawn) [compound 134, 1-cyclopentyl-1-(1-((1-(4-(isopropylsulfonyl)phenyl)azetidin-3-yl)methyl)piperidin-4-yl)-1,2,3,4-tetrahydroisoquinoline]	67 nM	3.8 µM	1.1 µM		
CNC(=O)O[C@@H]1CCC[C@H]1[C@@](C#N)(c1ccccc1)C1CCN(CC2CN(c3ccc(S(=O)(=O)c4ccncc4)cc3)C2)CC1 (mixture of isomers) [compound 354, rac-(1R,2S)-2-((R)-cyano(phenyl)(1-((1-(4-(pyridin-4-ylsulfonyl)phenyl)azetidin-3-yl)methyl)piperidin-4-yl)methyl)cyclopentyl methylcarbamate]	62 nM			4.7 µM	1.3 µM
CC(=O)N[C@H]1CCC[C@@H]1C1(C2CCN(CC3CN(c4ccc(S(=O)(=O)c5ccncc5)cc4)C3)CC2)CN(C)Cc2ccccc21 (mixture of isomers) [compound 271, rac-N-((1S,2R)-2-(2-methyl-4-(1-((1-(4-(pyridin-4-ylsulfonyl)phenyl)azetidin-3-yl)methyl)piperidin-4-yl)-1,2,3,4-tetrahydroisoquinolin-4-yl)cyclopentyl)acetamide]	5 nM			0.717 ± 0.002 µM	0.123 ± 0.043 µM
CC(=O)N[C@H]1CCC[C@@H]1C(C#N)(c1ccccc1)C1CCN(CC2CN(c3ccc(S(=O)(=O)c4ccncc4)cc3)C2)CC1 (mixture of isomers) [compound 263, rac-N-((1S,2R)-2-(cyano(phenyl)(1-((1-(4-(pyridin-4-ylsulfonyl)phenyl)azetidin-3-yl)methyl)piperidin-4-yl)methyl)cyclopentyl) acetamide]	10 nM			1.4 µM	0.254 µM
